Results on 1 molecule are retold here after patent EP0097546A1, “Benzhydrylsulfinyl ethyl amines, process for their preparation and their use in therapy” (LABORATOIRE L. LAFON Société anonyme dite:, priority 1982, dated 1984).

Type in all cases: in vivo
Data set [1] concerns hypothermies induites par l'apomorphine. The data set is described as follows: Antagonism of apomorphine-induced hypothermia. To be noted: i.p. The procedure:
(§1) On a résumé ci-après les résultats des essais neuro- pshychopharmacologiques qui ont été ertrepris avec le CRL 40883 (produit de l'exemple 1). Dans ces essais le CRL 40883 en solution dans de l'eau distillée à pH 5 a été administré par voie intra- péritonéale sous un volume de 20 ml/kg chez la souris mâle et sous un volume de 5 ml/kg chez le rat mâle.

In another data set the test system is groupes de souris. The experiment in a line: Intergroup aggressiveness test. The conditions noted are these: groups of mice, i.p., doses 16 mg/kg and 64 mg/kg. The procedure:
as §1

The test system of another data set is rat. The data set is described as follows: Global behaviour and reactivities in the rat. To be noted: i.p. The procedure: as §1
(§2) • Des lots de 6 animaux sont observés avant, puis 15 minutes, 30 minutes, 1 h , 2 h , 3 h et 24 h après l'administration de CRL 40 883.

Another data set concerns souris. The data set is described as follows: Global behaviour and reactivities in the mouse. The conditions noted are these: i.p. The method, then:
as §1, §2

A further data set deals with souris mâle. The data set is described as follows: Toxicity, intraperitoneal route. The conditions noted are these: male mouse, I.P. route. The procedure: as §1
• Chez la souris mâle la DL-30 par voie I.P. du CRL 40883 est de l'ordre de 250 mg/kg.

The subject of data set [2] is hypothermies induites par l'oxotrémorine. The data set is described as follows: Antagonism of oxotremorine-induced hypothermia. The conditions noted are these: i.p. The method, then: as §1
Data set [3] relates to stéréotypies amphétaminiques. The data set is described as follows: Amphetamine stereotypies. To be noted: i.p. The method, then: as §1
Data set [4] has as its system hypothermies induites par la réserpine. The data set is described as follows: Antagonism of reserpine-induced hypothermia. To be noted: i.p. The procedure: as §1

With `CNCC[S+]([O-])C(c1ccccc1)c1ccccc1` (centres unmarked) [CRL 40883, chlorhydratede N-[2-(benzhydrylsulfinyl)-éthyl]-méthylamine], in data set [1], the “antagonisme des hypothermies induites par l'apomorphine” value is “antagonisme”. The nombre de combats entry in the data set with groupes de souris is given as “forte diminution du nombre de combats”. Moreover, in the data set on rat (32 mg/kg, lasting 30 minutes), the réactivité au toucher entry is “hyporéactivité au toucher” and the tonus musculaire result is recorded as “hypotonie musculaire”. The symptômes result in the data set with rat (doses 8 mg/kg, 2 mg/kg and 0,5 mg/kg) is “pas de symptômes particuliers”. In addition, the “comportement et réactivités” value in the data set with souris (doses 64 mg/kg, 16 mg/kg, 4 mg/kg and 1 mg/kg, observed 15 min to 24 h) is “n'entraîne pas de modifications sensibles du comportement et des réactivités”. Further, the sédation result with souris (mainly at 128 mg/kg) was “sédation modérée”. In the data set with souris mâle, the DL-30 is given as ~250 mg/kg. The “antagonisme des hypothermies induites par l'oxotrémorine” value in data set [2] is “antagonisme”. Further, the “stéréotypies amphétaminiques” value in data set [3] is recorded as “potentialisation des stéréotypies amphétaminiques”. In data set [4], the “antagonisme des hypothermies induites par la réserpine” value is listed as “antagonisme”.
